Results taken from patent publication US6492419B1, “Aqueous insecticidal pour-on formulation” (Schering-Plough Animal Health Corp., priority 1997, dated 2002).

Key:
Format in all cases: in vivo
[1] = system: sheep lice; assay: Field efficacy (control of sheep lice); conditions: 25 g/L; for Pre treatment mean lice count: baseline
[2] = system: Bovicola ovis (Schrank), sheep body louse; assay: Pen trial of diflubenzuron pour-on against sheep lice (Examples 2-4); conditions: for % Lice reduction: corrected lice counts
Source text: Order—Phthiraptera, Sub Order—Mallophaga, Family—Trichodectidae, Genus—Damalinia (Bovicola, Trichodectes), Species—Bovicola ovis (Schrank) and Common name—Sheep body louse.
The sheep used in this study were a uniform line of Merino wethers heavily infected with lice.
The method requires examination of twenty partings each 10 cm long, along two contours on the left and right sides covering the wool growing regions of the animal. At each of the 40 recorded sites all live adult lice are counted. Site counts are summed to give a total count for the animal.
Within 24 hours of shearing, treatments were applied as a single stripe along the backline of the sheep. The dose rate applied was based on 20 mL of treatment per animal which is based on all test animals being in the 30.1-55 kg weight range.
The delivery apparatus for each formulation was a commercial applicator, set to deliver 1×20 mL doses to the sheep backline. The gun was calibrated using a volumetric cylinder and checked twice before and once after treatment.
To avoid the possibility of rain complicating the post treatment situation the sheep were kept in pens for a minimum of 48 hours. Then on the morning of the 25 th day of the trial, they were placed into their paddocks. […]

[3] = Tissue residues after aqueous pour-on, cattle; conditions: 15 mg/kg pour-on, LOQ = 0.02 mg/kg
Method: (§1) Tissue residue studies were carried out following application of the aqueous pour-on to both sheep and cattle (Reference is made to page 1, lines 34 and 35 where it is mentioned that treatment with non aqueous pour-on formulations can lead to high tissue residues in animals treated with these formulations.)

[4] = Tissue residues after aqueous pour-on, sheep; conditions: 20 mg/kg pour-on, LOQ = 0.02 mg/kg
Method: as §1

SMILES: O=C(NC(=O)c1c(F)cccc1F)Nc1ccc(Cl)cc1 [Diflubenzuron, diflubenzuron]
- % Lice reduction ([1]; Trial 1, Uraila, N.S.W., 1309 fine wool merinos, after 6 weeks): 98.1%
- % Lice reduction ([1]; Trial 1, Uraila, N.S.W., 1309 fine wool merinos, after 12 weeks): 98.7%
- % Lice reduction ([1]; Trial 1, Uraila, N.S.W., 1309 fine wool merinos, after 20 weeks): 100%
- Pre treatment mean lice count ([1]; Trial 1, Uraila, N.S.W., 1309 fine wool merinos): 156
- % Lice reduction ([1]; Trial 2, Guyra, N.S.W., 2000 super fine wool, after 6 weeks): 100%
- % Lice reduction ([1]; Trial 2, Guyra, N.S.W., 2000 super fine wool, after 12 weeks): 100%
- % Lice reduction ([1]; Trial 2, Guyra, N.S.W., 2000 super fine wool, after 20 weeks): 100%
- Pre treatment mean lice count ([1]; Trial 2, Guyra, N.S.W., 2000 super fine wool): 41
- % Lice reduction ([1]; Trial 3, Crookwell, N.S.W., 680 medium fine wool merinos, after 6 weeks): 91.3%
- % Lice reduction ([1]; Trial 3, Crookwell, N.S.W., 680 medium fine wool merinos, after 12 weeks): 99.6%
- % Lice reduction ([1]; Trial 3, Crookwell, N.S.W., 680 medium fine wool merinos, after 20 weeks): 100%
- Pre treatment mean lice count ([1]; Trial 3, Crookwell, N.S.W., 680 medium fine wool merinos): 242
- % Lice reduction ([1]; Trial 4, Lucindale, N.S.W, 1094 strong wool merinos, after 6 weeks): 99.8%
- % Lice reduction ([1]; Trial 4, Lucindale, N.S.W, 1094 strong wool merinos, after 12 weeks): 100%
- % Lice reduction ([1]; Trial 4, Lucindale, N.S.W, 1094 strong wool merinos, after 20 weeks): 100%
- Pre treatment mean lice count ([1]; Trial 4, Lucindale, N.S.W, 1094 strong wool merinos): 35
- % Lice reduction ([1]; Trial 5, Coonalpyn, S.A., 1101 strong wool merinos, after 6 weeks): 99.6%
- % Lice reduction ([1]; Trial 5, Coonalpyn, S.A., 1101 strong wool merinos, after 12 weeks): 100%
- % Lice reduction ([1]; Trial 5, Coonalpyn, S.A., 1101 strong wool merinos, after 20 weeks): 100%
- Pre treatment mean lice count ([1]; Trial 5, Coonalpyn, S.A., 1101 strong wool merinos): 142
- % Lice reduction ([1]; Trial 6, Lismore, Vic, 812 super fine merinos, after 6 weeks): 99.5%
- % Lice reduction ([1]; Trial 6, Lismore, Vic, 812 super fine merinos, after 12 weeks): 100%
- % Lice reduction ([1]; Trial 6, Lismore, Vic, 812 super fine merinos, after 20 weeks): 100%
- Pre treatment mean lice count ([1]; Trial 6, Lismore, Vic, 812 super fine merinos): 51
- lice killed ([2]; 12.5 and 25.0 g/L, 20 ml dose along the backline of sheep, within 10 weeks of application): 95%
- lice kills ([2]; 12.5 and 25.0 g/L, 20 ml dose along the backline of sheep, within 20 weeks): 100%
- % Lice reduction ([2]; 12.5 g/L pour-on, sheep, after 2 weeks): 91.0%
- % Lice reduction ([2]; 12.5 g/L pour-on, sheep, after 5 weeks): 94.9%
- % Lice reduction ([2]; 12.5 g/L pour-on, sheep, after 10 weeks): 98.9%
- % Lice reduction ([2]; 12.5 g/L pour-on, sheep, after 15 weeks): 100.0%
- % Lice reduction ([2]; 12.5 g/L pour-on, sheep, after 20 weeks): 100.0%
- Mean Lice Counts ([2]; 12.5 g/L, 20 mL backline (250 mg per sheep), 5 Merino wethers, week 0 (baseline)): 161.8
- Mean Lice Counts ([2]; 12.5 g/L, 20 mL backline, sheep, 2 weeks after treatment): 6.8
- Mean Lice Counts ([2]; 12.5 g/L, 20 mL backline, sheep, 5 weeks after treatment): 1.8
- Mean Lice Counts ([2]; 12.5 g/L, 20 mL backline, sheep, 10 weeks after treatment): 0.4
- Mean Lice Counts ([2]; 12.5 g/L, 20 mL backline, sheep, 15 weeks after treatment): 0.0
- Mean Lice Counts ([2]; 12.5 g/L, 20 mL backline, sheep, 20 weeks after treatment): 0.0
- % Lice reduction ([2]; 25.0 g/L pour-on, sheep, after 2 weeks): 69.6%
- % Lice reduction ([2]; 25.0 g/L pour-on, sheep, after 5 weeks): 83.4%
- % Lice reduction ([2]; 25.0 g/L pour-on, sheep, after 10 weeks): 94.8%
- % Lice reduction ([2]; 25.0 g/L pour-on, sheep, after 15 weeks): 96.4%
- % Lice reduction ([2]; 25.0 g/L pour-on, sheep, after 20 weeks): 100.0%
- Mean Lice Counts ([2]; 25.0 g/L, 20 mL backline (500 mg per sheep), 5 Merino wethers, week 0 (baseline)): 120.6
- Mean Lice Counts ([2]; 25.0 g/L, 20 mL backline, sheep, 2 weeks after treatment): 17.2
- Mean Lice Counts ([2]; 25.0 g/L, 20 mL backline, sheep, 5 weeks after treatment): 4.4
- Mean Lice Counts ([2]; 25.0 g/L, 20 mL backline, sheep, 10 weeks after treatment): 1.4
- Mean Lice Counts ([2]; 25.0 g/L, 20 mL backline, sheep, 15 weeks after treatment): 1.0
- Mean Lice Counts ([2]; 25.0 g/L, 20 mL backline, sheep, 20 weeks after treatment): 0.0
- Level of diflubenzuron residues in fat tissues, Inguinal fat ([3]; 1 day post treatment): <LOQ
- Level of diflubenzuron residues in fat tissues, Inguinal fat ([3]; 3 days post treatment): <LOQ
- Level of diflubenzuron residues in fat tissues, Inguinal fat ([3]; 7 days post treatment): <LOQ
- Level of diflubenzuron residues in fat tissues, Peri-renal fat ([3]; 7 days post treatment): <LOQ
- Level of diflubenzuron residues in fat tissues, Inguinal fat ([3]; 14 days post treatment): <LOQ
- Level of diflubenzuron residues in fat tissues, Peri-renal fat ([3]; 14 days post treatment): <LOQ
- concentration at 1 day ([3]; bovine, peri-renal fat, topical, 1 day post treatment, read-out: Level of diflubenzuron residues in fat tissues, Peri-renal fat): 170 ng/g
- concentration at 3 days ([3]; bovine, peri-renal fat, topical, 3 days post treatment, read-out: Level of diflubenzuron residues in fat tissues, Peri-renal fat): 90 ng/g
- Level of diflubenzuron residues in tissues, Kidney ([4]; 1 day post treatment): <LOQ
- Level of diflubenzuron residues in tissues, Liver ([4]; 1 day post treatment): <LOQ
- Level of diflubenzuron residues in tissues, Muscle ([4]; 1 day post treatment): <LOQ
- Level of diflubenzuron residues in tissues, Inguinal fat ([4]; 1 day post treatment, max): ≤ 0.02 max mg/kg
- Level of diflubenzuron residues in tissues, peri-renal fat ([4]; 1 day post treatment, max): ≤ 0.03 max mg/kg
- Level of diflubenzuron residues in tissues, Kidney ([4]; 3 days post treatment): <LOQ
- Level of diflubenzuron residues in tissues, Liver ([4]; 3 days post treatment): <LOQ
- Level of diflubenzuron residues in tissues, Muscle ([4]; 3 days post treatment): <LOQ
- Level of diflubenzuron residues in tissues, Inguinal fat ([4]; 3 days post treatment, max): ≤ 0.04 max mg/kg
- Level of diflubenzuron residues in tissues, peri-renal fat ([4]; 3 days post treatment, max): ≤ 0.02 max mg/kg
- Level of diflubenzuron residues in tissues, Kidney ([4]; 7 days post treatment): <LOQ
- Level of diflubenzuron residues in tissues, Liver ([4]; 7 days post treatment): <LOQ
- Level of diflubenzuron residues in tissues, Muscle ([4]; 7 days post treatment): <LOQ
- Level of diflubenzuron residues in tissues, Inguinal fat ([4]; 7 days post treatment, max): ≤ 0.03 max mg/kg
- Level of diflubenzuron residues in tissues, peri-renal fat ([4]; 7 days post treatment, max): ≤ 0.02 max mg/kg
- Level of diflubenzuron residues in tissues, Kidney ([4]; 14 days post treatment): <LOQ
- Level of diflubenzuron residues in tissues, Liver ([4]; 14 days post treatment): <LOQ
- Level of diflubenzuron residues in tissues, Muscle ([4]; 14 days post treatment): <LOQ
- Level of diflubenzuron residues in tissues, peri-renal fat ([4]; 14 days post treatment): <LOQ
- Level of diflubenzuron residues in tissues, Inguinal fat ([4]; 14 days post treatment, max): ≤ 0.02 max mg/kg
- Level of diflubenzuron residues in tissues, Kidney ([4]; 21 days post treatment): <LOQ
- Level of diflubenzuron residues in tissues, Liver ([4]; 21 days post treatment): <LOQ
- Level of diflubenzuron residues in tissues, Muscle ([4]; 21 days post treatment): <LOQ
- Level of diflubenzuron residues in tissues, peri-renal fat ([4]; 21 days post treatment): <LOQ
- Level of diflubenzuron residues in tissues, Inguinal fat ([4]; 21 days post treatment, max): ≤ 0.05 max mg/kg
- Level of diflubenzuron residues in tissues, Inguinal fat ([4]; 42 days post treatment): <LOQ
- Level of diflubenzuron residues in tissues, Kidney ([4]; 42 days post treatment): <LOQ
- Level of diflubenzuron residues in tissues, Liver ([4]; 42 days post treatment): <LOQ
- Level of diflubenzuron residues in tissues, Muscle ([4]; 42 days post treatment): <LOQ
- Level of diflubenzuron residues in tissues, peri-renal fat ([4]; 42 days post treatment): <LOQ
